Measured values from ChEMBL document CHEMBL3616386, “3-Propionyl-thiazolidine-4-carboxylic acid ethyl esters: a family of antiproliferative thiazolidines” (Medchemcomm, 2015).

Legend:
[1] = Cytotoxicity against human HuH7 cells assessed as inhibition of cell proliferation by sulforhodamine B assay; assay type: functional, cell-based; settings: Huh-7
[2] = Cytotoxicity against human MV cells assessed as inhibition of cell proliferation by sulforhodamine B assay; assay type: functional, cell-based

SMILES | IC50 [1] | IC50 [2]
C#CC(=O)N1C(c2ccccc2)SC[C@@H]1C(=O)OCC (some centres not stated) | 5300 nM | 400 nM
C#CC(=O)N1C(c2ccc(OC)cc2)SC[C@@H]1C(=O)OCC (mixture of isomers) | 1400 nM | 700 nM
C#CC(=O)N1C(c2ccc(F)cc2)SC[C@@H]1C(=O)OCC (mixture of isomers) | 700 nM | 400 nM
C#CC(=O)N1C(c2cccc(F)c2)SC[C@@H]1C(=O)OCC (mixture of isomers) | 1400 nM | 1700 nM
C#CC(=O)N1C(c2ccccc2F)SC[C@@H]1C(=O)OCC (mixture of isomers) | 1700 nM | 1700 nM
C#CC(=O)N1C(c2ccc(C#N)cc2)SC[C@@H]1C(=O)OCC (mixture of isomers) | 2600 nM | 2400 nM
C#CC(=O)N1C(CCCCC)SC[C@@H]1C(=O)OCC (mixture of isomers) | 1800 nM | 2000 nM
C#CC(=O)N1C(CCCC)SC[C@@H]1C(=O)OCC (mixture of isomers) | 500 nM | 400 nM
C#CC(=O)N1C(C(CC)CCCC)SC[C@@H]1C(=O)OCC (mixture of isomers) | 1700 nM | 1600 nM
C#CC(=O)N1C(CC(C)CC(C)(C)C)SC[C@@H]1C(=O)OCC (mixture of isomers) | 1600 nM | 1100 nM
C#CC(=O)N1C(C(C)CCC)SC[C@@H]1C(=O)OCC (mixture of isomers) | 600 nM | 500 nM
C#CC(=O)N1C(C(C)(C)C)SC[C@@H]1C(=O)OCC (mixture of isomers) | 800 nM | 900 nM
CC[C@@]1(O)C(=O)OCc2c1cc1n(c2=O)Cc2cc3ccccc3nc2-1 [CAMPTOTHECIN] | 100 nM | < 1000 nM
O=c1[nH]cc(F)c(=O)[nH]1 [FLUOROURACIL] |  | 10000 nM
